Tested on: S. aureus DSM 20231
Experiment: Bliss interaction score (quartile over a dose matrix) (fitness difference); higher = more antagonism (negative = synergy)
Summary of the method: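 Fitness here means normalised growth, inferred for single drugs from the combination data. Growth was OD595 at entry into stationary phase, divided by the plate's robust no-drug mean and capped at 1. The Bliss score is observed minus expected fitness, with the expectation being the product, and its quartiles span technical, biological and donor/recipient replicates.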
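Note: first quartile when negative (synergy) and third quartile when positive (antagonism).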

Structure (SMILES)	Bliss interaction score	Bliss interaction score (main component drawn)
CO[C@@]12[C@H](COC(N)=O)C3=C(C(=O)C(C)=C(N)C3=O)N1C[C@@H]1N[C@@H]12 [MitomycinC] + CCCSc1nc(N[C@@H]2C[C@H]2c2ccc(F)c(F)c2)c2nnn([C@@H]3C[C@H](OCCO)[C@@H](O)[C@H]3O)c2n1 [Ticagrelor]	-0.392	–
CO[C@@]12[C@H](COC(N)=O)C3=C(C(=O)C(C)=C(N)C3=O)N1C[C@@H]1N[C@@H]12 [MitomycinC] + CCCc1nc2c(C)cc(-c3nc4ccccc4n3C)cc2n1Cc1ccc(-c2ccccc2C(=O)O)cc1 [Telmisartan]	-0.162	–
CO[C@@]12[C@H](COC(N)=O)C3=C(C(=O)C(C)=C(N)C3=O)N1C[C@@H]1N[C@@H]12 [MitomycinC] + COc1ccc2[nH]c([S+]([O-])Cc3ncc(C)c(OC)c3C)nc2c1 [Omeprazole]	0.169	–
CO[C@@]12[C@H](COC(N)=O)C3=C(C(=O)C(C)=C(N)C3=O)N1C[C@@H]1N[C@@H]12 [MitomycinC] + COc1ccc(CCN(C)CCCC(C#N)(c2ccc(OC)c(OC)c2)C(C)C)cc1OC [Verapamil]	0.195	–
CO[C@@]12[C@H](COC(N)=O)C3=C(C(=O)C(C)=C(N)C3=O)N1C[C@@H]1N[C@@H]12 [MitomycinC] + Cc1c(Cl)cccc1Nc1ccccc1C(=O)O [Tolfenamic]	-0.273	–
CC(C)(O)c1ccccc1CC[C@@H](SCC1(CC(=O)O)CC1)c1cccc(/C=C/c2ccc3ccc(Cl)cc3n2)c1 [Montelukast] + CCC(C)C1C(=O)NC(=C)C(=O)NC(C(=O)NC(CSCC(C(=O)N1)NC(=O)/C(=C/C)/NC(=O)C(C(C)CC)N)C(=O)NC2C(SCC(NC(=O)CNC(=O)C3CCCN3C2=O)C(=O)NC(CCCCN)C(=O)NC4C(SCC(NC(=O)CNC(=O)C(NC(=O)C(NC(=O)C(NC(=O)CNC4=O)C)CC(C)C)CCSC)C(=O)NC(CC(=O)N)C(=O)NC(CCSC)C(=O)NC(CCCCN)C(=O)NC5C(SCC6C(=O)NC(C(=O)NC(CSC(C(C(=O)N6)NC(=O)C(NC5=O)C)C)C(=O)NC(CO)C(=O)NC(C(C)CC)C(=O)NC(CC7=CN=CN7)C(=O)NC(C(C)C)C(=O)NC(=C)C(=O)NC(CCCCN)C(=O)O)CC8=CN=CN8)C)C)C)CC(C)C [Nisin]	–	0.297
CC(C)(O)c1ccccc1CC[C@@H](SCC1(CC(=O)O)CC1)c1cccc(/C=C/c2ccc3ccc(Cl)cc3n2)c1 [Montelukast] + CN[C@@H]1[C@H](O[C@H]2[C@H](O[C@H]3[C@H](O)[C@@H](O)[C@H](N=C(N)N)[C@@H](O)[C@@H]3N=C(N)N)O[C@@H](C)[C@]2(O)C=O)O[C@@H](CO)[C@H](O)[C@H]1O [Streptomycin]	-0.394	–
CC(C)(O)c1ccccc1CC[C@@H](SCC1(CC(=O)O)CC1)c1cccc(/C=C/c2ccc3ccc(Cl)cc3n2)c1 [Montelukast] + CN[C@H](CC(C)C)C(=O)N[C@H]1C(=O)N[C@@H](CC(N)=O)C(=O)N[C@H]2C(=O)N[C@H]3C(=O)N[C@H](C(=O)N[C@H](C(=O)O)c4cc(O)cc(O)c4-c4cc3ccc4O)[C@H](O[C@H]3C[C@](C)(N)[C@@H](O)[C@H](C)O3)c3ccc(c(Cl)c3)Oc3cc2cc(c3O[C@@H]2O[C@H](CO)[C@@H](O)[C@H](O)[C@H]2O[C@H]2C[C@](C)(NCc3ccc(-c4ccc(Cl)cc4)cc3)[C@@H](O)[C@H](C)O2)Oc2ccc(cc2Cl)[C@H]1O [Oritavancin]	0.247	–
CC(C)(O)c1ccccc1CC[C@@H](SCC1(CC(=O)O)CC1)c1cccc(/C=C/c2ccc3ccc(Cl)cc3n2)c1 [Montelukast] + COc1cc(Cc2cnc(N)nc2N)cc(OC)c1OC [Trimethoprim]	-0.299	–
CC(C)(O)c1ccccc1CC[C@@H](SCC1(CC(=O)O)CC1)c1cccc(/C=C/c2ccc3ccc(Cl)cc3n2)c1 [Montelukast] + Cn1nnc(-c2ccc(-c3ccc(N4C[C@H](CO)OC4=O)cc3F)cn2)n1 [Tedizolid]	-0.384	–
CO[C@@H]1[C@@H](OC(N)=O)[C@@H](O)[C@H](Oc2ccc3c(O)c(NC(=O)c4ccc(O)c(CC=C(C)C)c4)c(=O)oc3c2C)OC1(C)C [Novobiocin] + CCCSc1nc(N[C@@H]2C[C@H]2c2ccc(F)c(F)c2)c2nnn([C@@H]3C[C@H](OCCO)[C@@H](O)[C@H]3O)c2n1 [Ticagrelor]	0.177	–
CO[C@H]1/C=C/O[C@@]2(C)Oc3c(C)c(O)c4c(O)c(c(/C=N/N5CCN(C)CC5)c(O)c4c3C2=O)NC(=O)/C(C)=C\C=C\[C@H](C)[C@H](O)[C@@H](C)[C@@H](O)[C@@H](C)[C@H](OC(C)=O)[C@@H]1C [Rifampicin] + CCCSc1nc(N[C@@H]2C[C@H]2c2ccc(F)c(F)c2)c2nnn([C@@H]3C[C@H](OCCO)[C@@H](O)[C@H]3O)c2n1 [Ticagrelor]	0.245	–
CN[C@@H]1[C@H](O)[C@H](NC)[C@H]2O[C@@]3(O)C(=O)C[C@@H](C)O[C@H]3O[C@@H]2[C@H]1O [Spectinomycin] + Cc1c(Cl)cccc1Nc1ccccc1C(=O)O [Tolfenamic]	0.145	–
CN[C@@H]1[C@H](O[C@H]2[C@H](O[C@H]3[C@H](O)[C@@H](O)[C@H](N=C(N)N)[C@@H](O)[C@@H]3N=C(N)N)O[C@@H](C)[C@]2(O)C=O)O[C@@H](CO)[C@H](O)[C@H]1O [Streptomycin] + CC/C(=C(\c1ccccc1)c1ccc(OCCN(C)C)cc1)c1ccccc1 [Tamoxifene]	0.166	–
CN[C@@H]1[C@H](O[C@H]2[C@H](O[C@H]3[C@H](O)[C@@H](O)[C@H](N=C(N)N)[C@@H](O)[C@@H]3N=C(N)N)O[C@@H](C)[C@]2(O)C=O)O[C@@H](CO)[C@H](O)[C@H]1O [Streptomycin] + CCCSc1nc(N[C@@H]2C[C@H]2c2ccc(F)c(F)c2)c2nnn([C@@H]3C[C@H](OCCO)[C@@H](O)[C@H]3O)c2n1 [Ticagrelor]	-0.259	–
CN[C@@H]1[C@H](O[C@H]2[C@H](O[C@H]3[C@H](O)[C@@H](O)[C@H](N=C(N)N)[C@@H](O)[C@@H]3N=C(N)N)O[C@@H](C)[C@]2(O)C=O)O[C@@H](CO)[C@H](O)[C@H]1O [Streptomycin] + CCCc1nc2c(C)cc(-c3nc4ccccc4n3C)cc2n1Cc1ccc(-c2ccccc2C(=O)O)cc1 [Telmisartan]	0.123	–
